Results on seven molecules are retold here after patent EP4729516A1, “S[…] DERIVATIVE, INTERMEDIATE, PREPARATION METHOD THEREFOR AND USE THEREOF” (Jiangsu NHWA Pharmaceutical Co., Ltd, priority 2023, dated 2024).

Series [1] has as its system Male SD rats. In words: Hypnotic efficacy: loss of righting reflex (LORR) in rats. In kind it is in vivo. To be noted: for ED50: Rattus norvegicus, tail vein injection over 10 s, sequential method; for induce sleep in rats: time to induce sleep, dose twice the ED50. As for the experimental part: The sequential method was used to determine the ED50 (median effective dose) for the loss of righting reflex (LORR) by the compounds of the present disclosure in rats: Male SD rats, weighing 200-300 grams, were used. Each compound was dissolved in normal saline and administered via tail vein injection at an initial dose at a constant injection rate over 10 s (one rat per dose). […] This process was repeated, and the results were recorded in the AOT425 Statpm software until the software could calculate the ED50, at which point the experiment was terminated. The hypnotic efficacy of the compounds of the present disclosure was evaluated using ED50 with lower ED50 values indicating stronger efficacy.
Comparison of onset time and duration: Male SD rats, weighing 200-300 grams, were used. Each compound was dissolved in normal saline and administered via tail vein injection at a constant injection rate over 10 s, with 10 rats per group. […] The onset time and duration were recorded.
The onset time refers to the period from the completion of injection to when the rat is placed in a supine position, with the criterion for loss of righting reflex defined as the rat's inability to spontaneously revert to a prone position using its forelimbs and maintained for ≥10 s, which serves as an indicator of compound efficacy; the duration refers to the sustained period during which the rat remains in a state of losing righting reflex. The spontaneous recovery of the righting reflex in the rat is considered the cessation of the efficacy.

The test system of series [2] is Male SD rats. Nature of the series: Fluctuations in blood pressure and heart rate after administration. As to conditions: for maximum decrease rates of HR / recovery of HR / maximum increase rates of MAP: compared with dexmedetomidine hydrochloride; for HR decrease Maximum decrease rate / MAP decrease Maximum decrease rate / MAP increase Maximum increase rate: dose as in Test Example 3, within 90 min; for decreases in MAP: no significant decreases greater than the stated value. In kind it is in vivo. The procedure: Male SD rats, weighing 250-300 g, with 4 rats per group, were maintained under general anesthesia by isoflurane inhalation. Femoral artery cannulation was performed, and blood pressure and heart rate were monitored using a Powerlab data acquisition and analysis system. 30 min after the baseline values stabilized, the baseline mean arterial pressure (MAP0) and baseline heart rate (HR0) were measured. The rats were given a solution of each compound in normal saline via tail vein injection (the dose of each compound was the same as in Test Example 3, with rapid intravenous injection over 10 s). Blood pressure and heart rate were continuously recorded for 90 min. MAP^+ (the difference between the maximum mean arterial pressure (MAPmax) and MAP0), MAP^-(the difference between the minimum mean arterial pressure (MAPmin) and MAP0), and HR^- (the difference between the minimum heart rate (HRmin) and HR0) within 90 min were calculated. For calculation, the maximum increase rate of mean arterial pressure = MAP^+/MAP0 × 100%; the maximum decrease rate of mean arterial pressure = MAP^-/MAP0 × 100%; and the maximum decrease rate of heart rate = HR^-/HR0 × 100%.

[3] abbreviates: loss of righting reflex, male SD rats.
[4] abbreviates: in words, compared with dexmedetomidine hydrochloride, rats.
[5] abbreviates: loss of righting reflex, male SD rats, tail vein injection, dose twice the ED50, 10 rats per group.
The mark [6] stands for this setting: isoflurane-anesthetized male SD rats, tail vein injection, dose as in Test Example 3.
Setting [7] is: isoflurane-anesthetized male SD rats, tail vein injection.

Where a name gives a salt, the structure may show the parent alone.

`CC(c1c[nH]cn1)c1cccc2c1C=CC2` (stereo not drawn) [Compound 8, 4-[1-(1H-Inden-4-yl)ethyl]-1H-imidazole] registered an ED50 with Male SD rats [1] (setting [3]) of 0.0213 mg/kg. In addition, in the series on Male SD rats [1] (setting [4]), the Duration entry is reported as “significantly shorter” and the hypnotic onset time entry was “comparable to or slightly longer”. In the series on Male SD rats [1] (setting [5]), this molecule displayed a Duration of 635.80±697.73 S and an Onset time of 161.70±101.69 S. Also, the “induce sleep in rats” value with Male SD rats [1] (rats) is given as at most 5 min. In the series with Male SD rats [2] (in words, rats), the “maximum decrease rates of HR” value is “lower” and the “recovery of HR” value is recorded as “faster”. Further, in the series on Male SD rats [2] (setting [6]), the “HR decrease Duration” value is recorded as 60 min and the “MAP increase Duration” value is on record as 2 min. Also, in the series on Male SD rats [2] (setting [7]), the “HR decrease Maximum decrease rate” value is reported as 24.9±10.8%, the “MAP decrease Maximum decrease rate” value amounted to 7.1±4.1% and the “MAP increase Maximum increase rate” value is listed as 32.0±10.5%. For the same molecule, the “decreases in MAP” value with Male SD rats [2] (rats) is listed as at most 10%.
In the case of `CC(c1c[nH]cn1)c1cccc2c1OCC2` (stereo not drawn) [Compound 10, 4-[1-(2,3-Dihydrobenzofuran-7-yl)ethyl]-1H-imidazole], the median effective dose (ED50) with Male SD rats [1] (setting [3]) came out at 0.0088 mg/kg. Moreover, in the series with Male SD rats [1] (setting [4]), the Duration entry is “significantly shorter” and the hypnotic onset time result is recorded as “comparable to or slightly longer”. Besides, in the series on Male SD rats [1] (setting [5]), the Duration worked out at 508.10±572.65 S and the Onset time turned out to be 219.90±93.88 S. The “induce sleep in rats” value in the series on Male SD rats [1] (rats) is recorded as at most 5 min. In the series on Male SD rats [2] (in words, rats), the “maximum decrease rates of HR” value is on record as “lower”, the “maximum increase rates of MAP” value is on record as “lower” and the “recovery of HR” value was “faster”. Moreover, in the series with Male SD rats [2] (setting [6]), the “HR decrease Duration” value came to 30 min and the “MAP increase Duration” value is 2 min. For the same molecule, in the series on Male SD rats [2] (setting [7]), the “HR decrease Maximum decrease rate” value is 24.2±5.7 %, the “MAP decrease Maximum decrease rate” value came out at 7.9±7.4% and the “MAP increase Maximum increase rate” value came to 17.3±5.0 %. In addition, the “decreases in MAP” value in the series with Male SD rats [2] (rats) was at most 10%.
In the series on Male SD rats [1] (setting [3]), `C[C@H](c1c[nH]cn1)c1cc(F)cc2c1C=CC2` [Compound 11-b, 4-[(1S)-1-(6-fluoro-1H-inden-4-yl)ethyl]-1H-imidazole] displayed an ED50 of 0.0256 mg/kg. Besides, in the series on Male SD rats [1] (setting [4]), the Duration result was “significantly shorter” and the hypnotic onset time entry was “significantly shorter”. In the series on Male SD rats [1] (setting [5]), this molecule came in with a Duration of 666.00±376.66 S and an Onset time of 45.20±7.38 S. Also, in the series with Male SD rats [2] (in words, rats), the “maximum decrease rates of HR” value is recorded as “lower”, the “maximum increase rates of MAP” value is recorded as “lower” and the “recovery of HR” value is on record as “faster”. Besides, in the series with Male SD rats [2] (setting [6]), the “HR decrease Duration” value amounted to 60 min and the “MAP increase Duration” value is 2 min. In the series with Male SD rats [2] (setting [7]), the “HR decrease Maximum decrease rate” value was 31.2±3.19%, the “MAP decrease Maximum decrease rate” value turned out to be 6.7±4.02% and the “MAP increase Maximum increase rate” value was found to be 24.1±4.96%. Moreover, in the series with Male SD rats [2] (rats), the “decreases in MAP” value was at most 10%.
In the series with Male SD rats [1] (setting [3]), `CC(c1c[nH]cn1)c1cccc2c1C=CC2(C)C` (stereo not drawn) [Compound 17, 4-[1-(1,1-Dimethyl-1H-inden-4-yl)ethyl]-1H-imidazole] gave a 50% effective dose (ED50) of 0.276 mg/kg. Also, in the series with Male SD rats [1] (setting [4]), the Duration result is given as “significantly shorter” and the hypnotic onset time result is “comparable to or slightly longer”. In the series with Male SD rats [1] (setting [5]), this molecule came in with a Duration of 1602.50±681.51 S and an Onset time of 101.80±154.86 S. Moreover, the “induce sleep in rats” value in the series with Male SD rats [1] (rats) is listed as at most 5 min.
As for `C[C@H](c1c[nH]cn1)c1cccc2c1CCC2` [Compound 31-b, (S)-4-[1-(2,3-dihydro-1H-inden-4-yl)ethyl]-1H-imidazole], the 50% effect level in the series with Male SD rats [1] (setting [3]) (ED50) was put at a dose of 0.0268 mg/kg. Besides, in the series on Male SD rats [1] (setting [4]), the Duration entry was “significantly shorter” and the hypnotic onset time entry is “comparable to or slightly longer”. In the series with Male SD rats [1] (setting [5]), this molecule yielded a Duration of 1147.78±656.35 S and an Onset time of 100.44±49.16 S. Moreover, the “induce sleep in rats” value in the series with Male SD rats [1] (rats) is listed as at most 5 min. In the series with Male SD rats [2] (in words, rats), the “maximum decrease rates of HR” value was “lower”, the “maximum increase rates of MAP” value is listed as “lower” and the “recovery of HR” value is recorded as “faster”. Moreover, in the series on Male SD rats [2] (setting [6]), the “HR decrease Duration” value came out at 60 min and the “MAP increase Duration” value is 2 min. For the same molecule, in the series on Male SD rats [2] (setting [7]), the “HR decrease Maximum decrease rate” value was 30.2±7.7%, the “MAP decrease Maximum decrease rate” value is 5.3±4.6% and the “MAP increase Maximum increase rate” value is 24.0±11.1%. For the same molecule, in the series on Male SD rats [2] (rats), the “decreases in MAP” value is listed as at most 10%.
In the series with Male SD rats [1] (setting [3]), `C[C@H](c1c[nH]cn1)c1cc(F)cc2c1C(=O)CC2` [Compound 38-b, (S)-7-(1-(1H-imidazol-4-yl)ethyl)-5-fluoro-2,3-dihydro-1H-inden-1-one] showed a median effective dose (ED50) of 0.032 mg/kg. In the series on Male SD rats [1] (setting [4]), the Duration result is “significantly shorter” and the hypnotic onset time result is on record as “comparable to or slightly longer”. In the series on Male SD rats [1] (setting [5]), this molecule registered a Duration of 228.22±158.93 S and an Onset time of 102.44±52.34 S. The “induce sleep in rats” value with Male SD rats [1] (rats) is given as at most 5 min.
On to `Cc1cccc([C@H](C)c2cnc[nH]2)c1C` [Dexmedetomidine hydrochloride, reference compound], for which the ED50 in the series with Male SD rats [1] (setting [3]) stood at 0.01 mg/kg. In the series on Male SD rats [1] (setting [5]), this molecule showed a Duration of 3275.10±796.79 S and an Onset time of 77.80±28.56 S. In addition, the “change in MAP after administration” value in the series with Male SD rats [2] (in words, initial increase followed by a decrease, rats) is “biphasic change in MAP”. For the same molecule, in the series with Male SD rats [2] (setting [6]), the “HR decrease Duration” value turned out to be 90 min, the “MAP decrease Duration” value is on record as 90 min and the “MAP increase Duration” value was determined as 2 min. In the series on Male SD rats [2] (setting [7]), the “HR decrease Maximum decrease rate” value is recorded as 33.8±5.3%, the “MAP decrease Maximum decrease rate” value stood at 16.5±14.6% and the “MAP increase Maximum increase rate” value is 27.7±4.1%. Moreover, the “sustained reductions in MAP and HR” value in the series with Male SD rats [2] (rats, recording for 90 min) came out at 90 min.
